# Measurements as given in patent US10138207B2, “Benzomorphan analogs and the use thereof” (priority 2012, dated 2018).
# Like-named read-outs stand apart in the source and are kept apart here.
# Legend:
# κ opioid receptor = κ opioid receptor (Homo sapiens, UniProt P41145); assay: κ-opioid receptor [35S]GTPγS functional assay, U-2 OS cells; assay type: biochemical; set-up: expressed in transfected cells; host or cells: U-2 OS (in-house membranes); details: for Emax: read-out: GTPγS κ Emax
# μ-opioid receptor [1] = biological target: T1, μ-opioid receptor (Homo sapiens, UniProt P35372); assay: μ-opioid receptor [35S]GTPγS functional assay, U-2 OS cells; assay type: biochemical; set-up: expressed in transfected cells; host or cells: U-2 OS; details: for Emax: relative to DAMGO
# μ-opioid receptor [2] = biological target: T1, μ-opioid receptor; assay: μ-opioid receptor [35S]GTPγS functional assay, HEK-293 or CHO cells
# [3] = read-out: GTPγS μ Emax, U-2 OS cells
# [4] = U-2 OS cells, read-out: GTPγS κ EC50
# [5] = U-2 OS cells, relative to U69,593
# [6] = U-2 OS cells, read-out: GTPγS μ EC50
# [7] = U-2 OS cells, read-out: GTPγS μ Emax
# [8] = U-2 OS cells, bound in μM, read-out: GTPγS κ EC50
# [9] = U-2 OS cells, bound in μM, read-out: GTPγS μ EC50
# T1 sequence (P35372 whole entry, species assumed): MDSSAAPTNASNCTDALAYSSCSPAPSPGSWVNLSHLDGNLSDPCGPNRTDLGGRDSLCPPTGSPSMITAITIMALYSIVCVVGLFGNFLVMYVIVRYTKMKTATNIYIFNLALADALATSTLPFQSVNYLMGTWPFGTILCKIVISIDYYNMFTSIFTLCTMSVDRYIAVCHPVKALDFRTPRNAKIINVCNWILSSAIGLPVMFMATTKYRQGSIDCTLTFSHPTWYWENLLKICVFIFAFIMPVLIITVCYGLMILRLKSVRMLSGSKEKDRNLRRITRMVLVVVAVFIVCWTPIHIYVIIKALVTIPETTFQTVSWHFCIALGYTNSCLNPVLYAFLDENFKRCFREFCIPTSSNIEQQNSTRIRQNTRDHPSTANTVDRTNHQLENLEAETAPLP
# Chain of κ opioid receptor (P41145 whole entry): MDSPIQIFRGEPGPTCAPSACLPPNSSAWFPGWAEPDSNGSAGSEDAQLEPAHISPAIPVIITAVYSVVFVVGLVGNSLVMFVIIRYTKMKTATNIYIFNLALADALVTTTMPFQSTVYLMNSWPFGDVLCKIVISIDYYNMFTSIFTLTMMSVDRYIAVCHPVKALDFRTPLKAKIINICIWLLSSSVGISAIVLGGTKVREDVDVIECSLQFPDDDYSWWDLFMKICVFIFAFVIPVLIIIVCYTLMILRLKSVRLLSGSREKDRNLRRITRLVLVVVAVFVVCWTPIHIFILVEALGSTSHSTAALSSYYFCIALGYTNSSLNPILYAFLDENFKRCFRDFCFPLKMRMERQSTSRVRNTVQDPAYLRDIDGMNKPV
Structure (SMILES),EC50 (κ opioid receptor; [4]),Emax (κ opioid receptor; [5]),EC50 (μ-opioid receptor [1]; [6]),Emax (μ-opioid receptor [1]; [7]),also measured
"C[C@]12CCN(CC3CC3)[C@H](Cc3ccc(O)cc31)[C@@H]2NC(=O)c1ccsc1 [Compound 127, N-((2R,6S,11R)-3-(cyclopropylmethyl)-8-hydroxy-6-methyl-1,2,3,4,5,6-hexahydro-2,6-methanobenzo[d]azocin-11-yl)thiophene-3-carboxamide]",,,,,"EC50 (κ opioid receptor): 0.947 ± 0.068 µM; Emax (κ opioid receptor): 93 ± 3.51%; EC50 (μ-opioid receptor [1]; GTPγS μ EC50, U-2 OS cells, bound in μM): > 20 µM; Emax (μ-opioid receptor [1]; [3]): 3.67 ± 1.2%"
"CN([C@@H]1[C@H]2Cc3ccc(O)cc3[C@]1(C)CCN2CC1CC1)S(=O)(=O)c1cccc(C(F)(F)F)c1 [Compound 130, N-((2R,6S,11S)-3-(cyclopropylmethyl)-8-hydroxy-6-methyl-1,2,3,4,5,6-hexahydro-2,6-methanobenzo[d]azocin-11-yl)-N-methyl-3-(trifluoromethyl)benzenesulfonamide]",0.0228 ± 0.00338 µM,71 ± 3.11%,0.373 ± 0.105 µM,29 ± 2%,
"CN1CC[C@@]2(C)c3cc(O)ccc3C[C@@H]1[C@@H]2N(C)C(=O)c1ccccc1 [Compound 119, N-((2R,6S,11R)-8-hydroxy-3,6-dimethyl-1,2,3,4,5,6-hexahydro-2,6-methanobenzo[d]azocin-11-yl)-N-methylbenzamide]",0.383 ± 0.0219 µM,96.7 ± 5.36%,0.0322 ± 0.00326 µM,100 ± 2.73%,
"CCC[C@@]12CCN(C)C(Cc3ccc(OC)cc31)[C@H]2N(C)C(=O)Nc1ccc(CN)cc1 [Compound 138, 3-(4-(aminomethyl)phenyl)-1-((6R,11S)-8-methoxy-3-methyl-6-propyl-1,2,3,4,5,6-hexahydro-2,6-methanobenzo[d]azocin-11-yl)-1-methylurea]",,35.5 ± 2.06%,,45.3 ± 2.33%,EC50 (κ opioid receptor; [8]): > 20 µM; EC50 (μ-opioid receptor [1]; [9]): > 20 µM
"CN1CC[C@@]2(C)c3cc(O)ccc3C[C@@H]1[C@H]2N(C)C(=O)C1CCCCC1 [Compound 120, N-((2R,6S,11S)-8-hydroxy-3,6-dimethyl-1,2,3,4,5,6-hexahydro-2,6-methanobenzo[d]azocin-11-yl)-N-methylcyclohexanecarboxamide]",2.86 ± 0.231 µM,62.3 ± 4.91%,2.94 ± 0.481 µM,76.3 ± 3.48%,
"CN1CC[C@@]2(C)c3cc(O)ccc3C[C@@H]1[C@@H]2N(C)C(=O)Cc1ccccc1 [Compound 118, N-((2R,6S,11R)-8-hydroxy-3,6-dimethyl-1,2,3,4,5,6-hexahydro-2,6-methanobenzo[d]azocin-11-yl)-N-methyl-2-phenylacetamide]",0.0908 ± 0.00763 µM,75.2 ± 4.33%,0.00132 ± 4e-05 µM,101 ± 2.52%,
"COc1ccc(CCN[C@H]2[C@H]3Cc4ccc(O)cc4[C@]2(C)CCN3C)cc1 [Compound 100, (2R,6S,11R)-11-((4-methoxyphenethyl)amino)-3,6-dimethyl-1,2,3,4,5,6-hexahydro-2,6-methanobenzo[d]azocin-8-ol]",1.76 ± 0.364 µM,45 ± 2.08%,0.04 ± 0.00325 µM,102 ± 1.45%,
"CN(C(=O)c1ccccc1)[C@@H]1[C@H]2Cc3ccc(O)cc3[C@]1(C)CCN2CC1CC1 [Compound 115, N-((2R,6S,11S)-3-(cyclopropylmethyl)-8-hydroxy-6-methyl-1,2,3,4,5,6-hexahydro-2,6-methanobenzo[d]azocin-11-yl)-N-methylbenzamide]",0.0534 ± 0.00728 µM,76 ± 6.66%,0.159 ± 0.0154 µM,37.7 ± 1.67%,
"CN(C(=O)Nc1nc2cc(F)ccc2s1)[C@@H]1[C@H]2Cc3ccc(O)cc3[C@]1(C)CCN2CC1CC1 [Compound 134, 1-((2R,6S,11S)-3-(cyclopropylmethyl)-8-hydroxy-6-methyl-1,2,3,4,5,6-hexahydro-2,6-methanobenzo[d]azocin-11-yl)-3-(5-fluorobenzo[d]thiazol-2-yl)-1-methylurea]",,,,,"EC50 (κ opioid receptor): > 20 µM; Emax (κ opioid receptor): 90%; EC50 (μ-opioid receptor [1]; GTPγS μ EC50, U-2 OS cells): 0.00147 ± 0.00058 µM; Emax (μ-opioid receptor [1]; [3]): 16 ± 0.71%"
"CCC[C@@]12CCN(C)C(Cc3ccc(OC)cc31)[C@@H]2N(C)C(=O)Nc1ccc(C#N)cc1 [Compound 136, 3-(4-cyanophenyl)-1-((6R,11R)-8-methoxy-3-methyl-6-propyl-1,2,3,4,5,6-hexahydro-2,6-methanobenzo[d]azocin-11-yl)-1-methylurea]",3.83 ± 0.541 µM,22.3 ± 3.71%,2.33 ± 0.236 µM,62.3 ± 3.84%,
"CN1CC[C@@]2(C)c3cc(O)ccc3C[C@@H]1[C@@H]2N(C)C(=O)Nc1nc2cc(F)ccc2s1 [Compound 140, 3-(5-fluorobenzo[d]thiazol-2-yl)-1-((2R,6S,11R)-8-hydroxy-3,6-dimethyl-1,2,3,4,5,6-hexahydro-2,6-methanobenzo[d]azocin-11-yl)-1-methylurea]",0.00468 ± 0.0004 µM,107 ± 4.4%,0.0001 ± 1e-05 µM,82 ± 0.91%,
"CN1CC[C@@]2(C)c3cc(O)ccc3C[C@@H]1[C@@H]2N(C)C(=O)C1CCCCC1 [Compound 121, N-((2R,6S,11R)-8-hydroxy-3,6-dimethyl-1,2,3,4,5,6-hexahydro-2,6-methanobenzo[d]azocin-11-yl)-N-methylcyclohexanecarboxamide]",0.604 ± 0.0681 µM,18.3 ± 0.88%,0.126 ± 0.0154 µM,91.7 ± 4.18%,
"CN1CC[C@@]2(C)c3cc(O)ccc3C[C@@H]1[C@@H]2N(C)C(=O)/C=C/c1cccnc1 [Compound 122, (E)-N-((2R,6S,11R)-8-hydroxy-3,6-dimethyl-1,2,3,4,5,6-hexahydro-2,6-methanobenzo[d]azocin-11-yl)-N-methyl-3-(pyridin-3-yl)acrylamide]",0.0152 ± 0.00263 µM,94.5 ± 0.65%,0.00036 ± 1e-05 µM,102 ± 1.2%,
"CN1CC[C@@]2(C)c3cc(O)ccc3C[C@@H]1[C@H]2NCCc1ccncc1 [Compound 103, (2R,6S,11S)-3,6-dimethyl-11-((2-(pyridin-4-yl)ethyl)amino)-1,2,3,4,5,6-hexahydro-2,6-methanobenzo[d]azocin-8-ol]",0.287 ± 0.062 µM,83 ± 8.02%,0.117 ± 0.00282 µM,77.5 ± 1.26%,
"C=CC[C@@]12CCN(C)C(Cc3ccc(OC)cc31)[C@@H]2N(C)C(=O)Nc1ccc(C#N)cc1 [Compound 135, 1-((6R,11R)-6-allyl-8-methoxy-3-methyl-1,2,3,4,5,6-hexahydro-2,6-methanobenzo[d]azocin-11-yl)-3-(4-cyanophenyl)-1-methylurea]",2.81 ± 0.397 µM,22 ± 2.52%,1.7 ± 0.112 µM,92 ± 2.65%,
"CN1CC[C@@]2(C)c3cc(O)ccc3C[C@@H]1[C@H]2NCCc1ccc(C(C)(C)C)cc1 [Compound 105, (2R,6S,11S)-11-((4-(tert-butyl)phenethyl)amino)-3,6-dimethyl-1,2,3,4,5,6-hexahydro-2,6-methanobenzo[d]azocin-8-ol]",,1%,0.00022 ± 5.2e-05 µM,32.7 ± 1.76%,EC50 (κ opioid receptor; [8]): > 20 µM
"C[C@]12CCN(CC3CC3)[C@H](Cc3ccc(O)cc31)[C@H]2NCC1CCNCC1 [Compound 102, (2R,6S,11S)-3-(cyclopropylmethyl)-6-methyl-11-((piperidin-4-ylmethyl)amino)-1,2,3,4,5,6-hexahydro-2,6-methanobenzo[d]azocin-8-ol]",,-1%,,2.5%,EC50 (κ opioid receptor; [8]): > 20 µM; EC50 (μ-opioid receptor [1]; [9]): > 20 µM
"CN(C(=O)Nc1ccc(C(C)(C)C)cc1)[C@@H]1[C@H]2Cc3ccc(O)cc3[C@]1(C)CCN2CC1CC1 [Compound 133, 3-(4-(tert-butyl)phenyl)-1-((2R,6S,11S)-3-(cyclopropylmethyl)-8-hydroxy-6-methyl-1,2,3,4,5,6-hexahydro-2,6-methanobenzo[d]azocin-11-yl)-1-methylurea]",0.0217 ± 0.00316 µM,42 ± 4.02%,0.0039 ± 0.00074 µM,22.3 ± 1.2%,
"CN1CC[C@@]2(C)c3cc(O)ccc3C[C@@H]1[C@H]2N(C)C(=O)c1ccsc1 [Compound 125, N-((2R,6S,11S)-8-hydroxy-3,6-dimethyl-1,2,3,4,5,6-hexahydro-2,6-methanobenzo[d]azocin-11-yl)-N-methylthiophene-3-carboxamide]",0.443 ± 0.0732 µM,102 ± 5.69%,2.62 ± 0.396 µM,70.7 ± 2.33%,
"CN1CC[C@@]2(C)c3cc(O)ccc3C[C@@H]1[C@@H]2N(C)S(=O)(=O)c1cccc(C(F)(F)F)c1 [Compound 132, N-((2R,6S,11R)-8-hydroxy-3,6-dimethyl-1,2,3,4,5,6-hexahydro-2,6-methanobenzo[d]azocin-11-yl)-N-methyl-3-(trifluoromethyl)benzenesulfonamide]",0.0114 ± 0.00158 µM,89 ± 5.69%,0.00303 ± 0.00017 µM,95.3 ± 2.6%,
"COc1ccc2c(c1)[C@@]1(C)CCN(C)C(C2)C1N1CCC(N)CC1 (stereo partly drawn) [Compound 70, 1-((6R)-8-methoxy-3,6-dimethyl-1,2,3,4,5,6-hexahydro-2,6-methanobenzo[d]azocin-11-yl)piperidin-4-amine]",,,,,EC50 (μ-opioid receptor [2]): 9380 ± 501 nM; Emax (μ-opioid receptor [2]; read-out: GTPγS μ Emax): 24.7 ± 0.88%
"CCC[C@@]12CCN(C)C(Cc3ccc(O)cc31)[C@H]2N(C)C(=O)Nc1ccc(C#N)cc1 [Compound 137, 3-(4-cyanophenyl)-1-((6R,11S)-8-hydroxy-3-methyl-6-propyl-1,2,3,4,5,6-hexahydro-2,6-methanobenzo[d]azocin-11-yl)-1-methylurea]",3.37 ± 0.753 µM,30 ± 2.31%,1.32 ± 0.177 µM,50.3 ± 1.76%,
"CN1CC[C@@]2(C)c3cc(O)ccc3C[C@@H]1[C@@H]2N(C)C(=O)Cc1ccsc1 [Compound 123, N-((2R,6S,11R)-8-hydroxy-3,6-dimethyl-1,2,3,4,5,6-hexahydro-2,6-methanobenzo[d]azocin-11-yl)-N-methyl-2-(thiophen-3-yl)acetamide]",,,,,EC50 (κ opioid receptor): 0.113 ± 0.0058 µM; Emax (κ opioid receptor): 74 ± 3.06%; Emax (μ-opioid receptor [1]; [3]): 104 ± 3.06%
